“Also recorded” adds a separate entry of the source.
Columns and labels:
Fmr1−/− mice = experiment: Marble burying test; format: in vivo; settings: Fmr1−/− and Fmr1+/+ mice; bromide 250 mg/kg i.p. daily
Description: Sodium bromide (anhydrous, Sigma-Aldrich, Saint-Quentin, France) dissolved in saline solution (NaCl, 0.9%) at the dose of 250 or 500 mg/kg, or vehicle (NaCl, 0.9%), was administered intraperitoneally once a day for 19 days in a volume of 20 ml/kg. On testing days, bromide was administered 30 min before behavioural assays. Bumetanide (Tocris, provided by Bio-Techne, Lille, France) dissolved in NaCl 0.9% at the dose of 0.5 mg/kg (Deidda et al, 2015) or vehicle was administered intraperitoneally once a day for 19 days in a volume of 20 ml/kg.
Behavioural assays started after a week of daily bromide (or bumetanide) treatment.

Oprm1−/− mice [1] = experiment: Y-maze exploration
Oprm1−/− mice [2] = experiment: Marble burying test; settings: bromide 125, 250, 500 mg/kg i.p. daily
Oprm1−/− mice [3] = experiment: Novelty-suppressed feeding test; settings: for latency to feed: Oprm1 wild-type and null mice, bromide 250, 500 mg/kg
[4] = Example 2, Oprm1−/− mice, bromide 250, 500 mg/kg

[Br-].[Na+] [bromide, Sodium bromide]
number of marbles buried (Fmr1−/− mice): reduced | ratio of same arm returns (cognitive stereotypies, perseveration) (Oprm1−/− mice [1]; [4]): normalized; also recorded: relieved; also recorded: abolished | spontaneous alternation (Oprm1−/− mice [1]; [4]): restored | number of arm entries (index of general locomotor activity) (Oprm1−/− mice [1]; Example 2, both genotypes and genders, bromide 250 mg/kg): increased | number of alternate arm returns (Oprm1−/− mice [1]; Example 2, more in mutants than wild-type, more in females than males): increased; also recorded: tendency to increase | rate of alternate arm returns (Oprm1−/− mice [1]; Oprm1−/− and wild-type, bromide 125, 250, 500 mg/kg i.p. daily): increasing the rate | perseverative same arm returns (cognitive stereotypies) (Oprm1−/− mice [1]; Oprm1−/− mice, bromide 125, 250, 500 mg/kg i.p. daily): efficiently reduced; also recorded: demonstrated efficacy in reducing; also recorded: dose-dependently decreased; also recorded: significant decrease | number of marbles buried (Oprm1−/− mice [2]): reduced; also recorded: diminished | food intake in home cage (Oprm1−/− mice [3]; Example 2, Oprm1 mutants): increased food intake in mutants | latency to feed (Oprm1−/− mice [3]; Example 2): drastically reduced | latency to feed (Oprm1−/− mice [3]; Example 2, listed as Bromide): decreased in wild-type, and normalized in mu opioid receptor null mice | gender influence on latency to feed (Oprm1−/− mice [3]; Example 2, bromide 250 mg/kg): more effective in males than in females | dose at which the maximal effect on latency to feed was reached (Oprm1−/− mice [3]; Example 2, female Oprm1 null mice): 500 mg/kg | food intake in home cage (Oprm1−/− mice [3]; Example 2, female wild-type animals, bromide 250 mg): ate more than saline-treated animals | dose at which the maximal effect on latency to feed was reached (Oprm1−/− mice [3]; Example 2, male Oprm1 null mice): 250 mg/kg | feeding latency (Oprm1−/− mice [3]; Oprm1−/− mice, bromide, all three doses (125, 250, 500 mg/kg)): efficiently reduced the feeding latency to wild-type level; also recorded: normalized | behavioural signs of anxiety (overall) (Oprm1−/− mice [3]; Oprm1−/− mice, marble burying and novelty-suppressed feeding, bromide 125, 250, 500 mg/kg): efficiently reduced; also recorded: relieved | food intake back in the home cage (Oprm1−/− mice [3]; wild-type and mutant mice, bromide 125, 250, 500 mg/kg i.p. daily): increased
